Results published in patent publication US20220211810A1 (priority 2019, published 2022).

How the values were obtained:
[1] = target: T1, nomacopan (EV576, rVA576, OmCI protein, Coversin), Ornithodoros moubata, amino acids 19 to 168 of SEQ ID NO: 2 (SEQ ID NO: 4) (Ornithodoros moubata, UniProt Q5YD59); assay: LTB4 binding by fluorescence titration (protein Tyr/Trp fluorescence quenching)
T1 sequence (Q5YD59 19-168): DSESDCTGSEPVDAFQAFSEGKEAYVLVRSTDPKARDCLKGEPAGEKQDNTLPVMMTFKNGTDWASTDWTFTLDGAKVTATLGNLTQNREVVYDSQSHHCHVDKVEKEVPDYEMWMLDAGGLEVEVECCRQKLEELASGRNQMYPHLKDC
Method: This may be carried out as follows:
Purified 100 nM solutions of nomacopan, in 2 mL PBS were applied in a quartz cuvette (10 mm path length; Hellma, Mülheim, Germany) equipped with a magnetic stirrer. Temperature was adjusted to 20° C. and, after equilibrium was reached, protein Tyr/Trp fluorescence was excited at 280 nm (slit width: 15 nm). The fluorescence emission was measured at 340 nm (slit width: 16 nm) corresponding to the emission maximum. […] For calculation of the KD value, data was normalized to an initial fluorescence intensity of 100%, the inner filter effect was corrected using a titration of 3 μM N-acetyl-tryptophanamide solution and data was plotted against the corresponding ligand concentration. Then, non-linear least squares regression based on the law of mass action for bimolecular complex formation was used to fit the data with Origin software version 8.5 (OriginLab, Northampton, Mass., USA) using a published formula (Breustedt et al., 2006).

[2] = system: experimental autoimmune uveitis (EAU) in C57/B16 mice; assay: Experimental autoimmune uveitis (EAU), topical treatment, clinical score by fundoscopy; format: in vivo, mouse; conditions: twice daily 2-5 μl for 7 days, Maxidex, day 21 post immunization, n=12 eyes

Compound	Kd [1]	clinical score compared with L-nomacopan treated mice [2]
CCCCC/C=C\C[C@@H](O)/C=C/C=C/C=C\[C@@H](O)CCCC(=O)O [LTB4, Leukotriene B4]	0.2 to 0.3 nM	
C[C@@H]1C[C@H]2[C@@H]3CCC4=CC(=O)C=C[C@]4(C)[C@@]3(F)[C@@H](O)C[C@]2(C)[C@@]1(O)C(=O)CO [dexamethasone]		in line with
